In patent US8188101B2 (AstraZeneca AB, priority 2008, dated 2012):

What follows are compounds tested on Aβ42 release (assay: Aβ release in cells stably expressing APPswe, Meso Scale Discovery electrochemiluminescence assay). Conditions: Homo sapiens, SH-SY5Y, HEK or SH-SY5Y cells stably expressing APPswe, 4-6 hours incubation with test compound.
Assay type: cell-based, Human
Procedure, shortened: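 HEK or SH-SY5Y cells stably expressing APPswe, plated 15-24 h, then exposed to compound (diluted ×200 into fresh medium) for 4-6 h at 37 °C. Secreted Aβ42 in medium quantified by Meso Scale Discovery electrochemiluminescence with specific antibodies; cytotoxicity checked by cellular ATP content.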

Q: Which IC50 does the source give for c1ccc(CNc2nc(Nc3ccc(-c4cnco4)cc3)nc3c2CCNC3)cc1 [Example 5, N4-Benzyl-N2-(4-(oxazol-5-yl)phenyl)-5,6,7,8-tetrahydropyrido[3,4-d]pyrimidine-2,4-diamine] here?
A: The IC50 was 1 µM.

Q: For CC(=O)N1CCc2nc(Nc3ccc(-c4cnco4)cc3)nc(N(C)Cc3ccccc3CO)c2C1 [Example 91, 1-(4-((2-(Hydroxymethyl)benzyl)(methyl)amino)-2-(4-(oxazol-5-yl)phenylamino)-7,8-dihydropyrido[4,3-d]pyrimidin-6(5H)-yl)ethanone], which IC50 is on record?
A: Its IC50 is 2.51 µM.

Q: For COc1cc(Nc2nc3c(c(C(OC)c4ccccc4)n2)COCC3)ccc1-n1cnc(C)c1 (stereo not drawn) [Example 101, 4-(Methoxy(phenyl)methyl)-N-(3-methoxy-4-(4-methyl-1H-imidazol-1-yl)phenyl)-7,8-dihydro-5H-pyrano[4,3-d]pyrimidin-2-amine], which IC50 is on record?
A: Its IC50 is 0.0501 µM.

Q: How did the IC50 turn out when CC(=O)N1CCc2nc(Nc3ccc(-n4ccnc4C)cc3)nc(Cc3ccc(C)cc3)c2C1 [Example 59, 1-(2-(4-(2-Methyl-1H-imidazol-1-yl)phenylamino)-4-(4-methylbenzyl)-7,8-dihydropyrido[4,3-d]pyrimidin-6(5H)-yl)ethanone] was run?
A: The IC50 was 0.398 µM.

Q: Which IC50 does the source give for COc1cc(Nc2nc(CCC3CCCO3)c3c(n2)CCN(C)C3)ccc1-n1cnc(C)c1 (stereo not drawn) [Example 112, N-(3-Methoxy-4-(4-methyl-1H-imidazol-1-yl)phenyl)-6-methyl-4-(2-(tetrahydrofuran-2-yl)ethyl)-5,6,7,8-tetrahydropyrido[4,3-d]pyrimidin-2-amine] here?
A: The IC50 was 0.126 µM.

Q: Which IC50 does the source give for Cc1nccn1-c1ccc(Nc2nc3c(c(N[C@@H]4CC5CCC4C5)n2)CN(C)CC3)cc1 (stereo partly drawn) [Example 10, N4-((2R)-bicyclo[2.2.1]heptan-2-yl)-6-methyl-N2-(4-(2-methyl-1H-imidazol-1-yl)phenyl)-5,6,7,8-tetrahydropyrido[4,3-d]pyrimidine-2,4-diamine] here?
A: The IC50 was 0.501 µM.
